Source: patent publication US20100168038A1, “USE OF COMPOUNDS IN COMBINATION WITH GAMMA-IRRADIATION FOR THE TREATMENT OF CANCER” (priority 2006, published 2010)
Several values for one entry are separate records, joined by “and”; a condition that tells them apart may be missing. Identical values can stand only once. Residues, ends and D or L forms follow the SMILES beside them.

Legend:
[1] = system: Lewis Lung Carcinoma (LLC) cells; assay: Tumor growth of Lewis Lung Carcinoma (LLC) in mice, compound with or without gamma-irradiation; type: in vivo, mouse; conditions: for tumor volume / tumor volume, mean: LLC; for tumor volume: single mouse; for tumor volume, mean: group mean
From the text: Tumor Growth Experiments. Tumor cells were washed in PBS and resuspended in a volume of 200 micro-l per inoculate. The cells were then inoculated into the right flank at 10^6 per mouse and growth of the tumor was monitored by measurement two times per week. The initiation of anti-tumor treatment of the mice was to some extent individualized according to when tumor growth started in each mouse. The mice were irradiated with 4 Gy prior to tumor inoculation in order to inhibit anti-tumor immune responses. The tumor volume was calculated as the mean volume in mice with tumors growth, according to (a1×a2×a3)/2 (the numbers ai denote tumor diameter, width and depth). The time of first palpation varied between different mice, although the general pattern of growth was similar in virtually all of the mice. In most diagrams a log-scale is used to better visualize the therapeutic effects against small tumors, i.e. the presence of complete rejections. For inhibition of TPPII in vivo we made intraperitoneal injections with 13.8 mg per kg of body weight (14 micro-l of a 50 mM solution/mouse) of the Subtilisin inhibitor Z-Gly-Leu-Ala-OH (Z-GLA-OH, Bachem, Weil am Rhein, Germany) twice per week, diluted into 200 micro-l PBS. All gamma-irradiations were full body exposures.
Table 2 contains in vivo data, showing tumor volume in mm^3, in groups of 4 mice with LLC (Lewis Lung Carcinoma). Mice were sacrificed if the tumor volume exceeded 1000 mm^3. Some mice were administered with the compounds alone; others were additionally administered with irradiation. Mice were given the compounds, and in some cases also gamma irradition (400 Rad), at days 7, 10, 14, 18 and 21.

[2] = system: HeLa cells (human cervical carcinoma); assay: Tumor growth of HeLa cells in CB.17 SCID mice, Z-GLA-OH with gamma-irradiation; type: in vivo; conditions: Z-GLA-OH + gamma-irradiation 1.5 Gy/dose
Stability in serum = type: in vitro ADME
[3] = Toxicity study in vivo, single agent; conditions: doses up to 100 mg/kg, preliminary study
[4] = compound + gamma irradiation (400 Rad), day 10
[5] = compound + gamma irradiation (400 Rad), day 14
[6] = compound + gamma irradiation (400 Rad), day 18
[7] = compound + gamma irradiation (400 Rad), day 21

## CC(C)C[C@H](NC(=O)CNC(=O)OCc1ccccc1)C(=O)N[C@@H](C)C(=O)O [Z-GLA-OH, Z-Gly-Leu-Ala-OH] (HELM PEPTIDE1{[O=C(OCc1ccccc1)[*:2]].G.L.A}$$$$V2.0)
[1]; compound + gamma irradiation (400 Rad) at days 7, 10, 14, 18, 21, day 7
  tumor volume: 4.0 mm^3 and 6.0 mm^3 (2×) and 0.0 mm^3
[1]; compound + gamma irradiation (400 Rad), day 7
  tumor volume, mean: 4.00 mm^3
[1]; [4]
  tumor volume, mean: 64.00 mm^3
  tumor volume: 48.0 mm^3 and 128.0 mm^3 and 40.0 mm^3 (2×)
[1]; [5]
  tumor volume, mean: 84.00 mm^3
  tumor volume: 72.0 mm^3 (2×) and 144.0 mm^3 and 48.0 mm^3
[1]; [6]
  tumor volume, mean: 25.38 mm^3
  tumor volume: 32 mm^3 (2×) and 24 mm^3 and 13.5 mm^3
[1]; [7]
  tumor volume, mean: 7.00 mm^3
  tumor volume: 13.5 mm^3 (2×) and 0.5 mm^3 (2×)
[1]; compound alone, day 7
  tumor volume, mean: 5.88 mm^3
[1]; compound alone, day 7 after tumor inoculation
  tumor volume: 4.0 mm^3 and 0.0 mm^3 and 6.0 mm^3 and 13.5 mm^3
[1]; compound alone, day 10
  tumor volume, mean: 150.25 mm^3
  tumor volume: 256.0 mm^3 and 192.0 mm^3 and 9.0 mm^3 and 144.0 mm^3
[1]; compound alone, day 14
  tumor volume, mean: 748 mm^3
  tumor volume: 660.0 mm^3 and 864.0 mm^3 and 720.0 mm^3
[1]; compound alone, day 18
  tumor volume, mean: 1300.67 mm^3
  tumor volume: 864 mm^3 and 1470 mm^3 and 1568 mm^3
[1]; compound alone, day 21
  tumor volume: 2048.0 mm^3
[1]; Z-GLA-OH only, in the absence of gamma-irradiation
  effect on LLC tumors: no effect
[1]; established LLC tumors, gamma-irradiation 4 Gy doses + Z-GLA-OH injection
  tumor response: complete regression
[2]
  tumor response: strong tumor regression
Stability in serum
  stability in serum: relatively stable in serum
[3]
  toxicity in vivo: minor effects
